In ChEMBL document CHEMBL5291721, “A preclinical secondary pharmacology resource illuminates target-adverse drug reaction associations of marketed drugs” (Nat Commun, 2023):

Assays:
Progesterone receptor = biological target: T1, Progesterone receptor (Homo sapiens, UniProt P06401)
T1 sequence (P06401 whole entry): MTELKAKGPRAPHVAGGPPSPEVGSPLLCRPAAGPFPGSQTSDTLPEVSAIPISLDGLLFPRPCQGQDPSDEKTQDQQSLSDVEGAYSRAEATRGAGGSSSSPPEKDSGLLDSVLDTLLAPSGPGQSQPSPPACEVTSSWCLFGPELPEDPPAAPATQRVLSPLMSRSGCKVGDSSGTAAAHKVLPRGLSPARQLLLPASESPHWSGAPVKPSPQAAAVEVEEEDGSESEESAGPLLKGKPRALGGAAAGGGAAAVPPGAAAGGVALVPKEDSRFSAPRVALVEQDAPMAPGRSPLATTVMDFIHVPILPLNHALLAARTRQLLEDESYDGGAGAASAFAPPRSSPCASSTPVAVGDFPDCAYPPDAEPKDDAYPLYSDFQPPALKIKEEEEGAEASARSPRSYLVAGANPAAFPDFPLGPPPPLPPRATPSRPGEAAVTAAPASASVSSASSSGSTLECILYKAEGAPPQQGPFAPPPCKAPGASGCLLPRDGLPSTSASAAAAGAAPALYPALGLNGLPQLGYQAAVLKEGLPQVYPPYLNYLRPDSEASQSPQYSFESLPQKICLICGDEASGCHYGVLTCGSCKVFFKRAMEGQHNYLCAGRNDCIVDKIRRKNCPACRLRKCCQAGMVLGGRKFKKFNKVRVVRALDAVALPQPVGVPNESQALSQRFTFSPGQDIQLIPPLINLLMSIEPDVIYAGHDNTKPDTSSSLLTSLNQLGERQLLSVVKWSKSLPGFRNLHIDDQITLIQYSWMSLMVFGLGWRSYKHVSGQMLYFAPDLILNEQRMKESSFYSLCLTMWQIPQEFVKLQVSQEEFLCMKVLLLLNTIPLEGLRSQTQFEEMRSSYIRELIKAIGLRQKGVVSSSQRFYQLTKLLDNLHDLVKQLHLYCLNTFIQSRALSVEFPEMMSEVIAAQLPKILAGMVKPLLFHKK

[1] = biological target: Prostaglandin G/H synthase 1 (Homo sapiens, UniProt P23219); type: functional
[2] = biological target: Glutamate receptor ionotropic, NMDA 1 (Rattus norvegicus, UniProt P35439)
Histamine H1 receptor = Histamine H1 receptor (Homo sapiens, UniProt P35367)
Cannabinoid receptor 1 = Cannabinoid receptor 1 (Homo sapiens, UniProt P21554); type: functional, cell-based
[3] = biological target: Vascular endothelial growth factor receptor 2 (Homo sapiens, UniProt P35968); type: functional
Endothelin-1 receptor = biological target: T2, Endothelin-1 receptor (Homo sapiens, UniProt P25101)
T2 sequence (P25101 whole entry): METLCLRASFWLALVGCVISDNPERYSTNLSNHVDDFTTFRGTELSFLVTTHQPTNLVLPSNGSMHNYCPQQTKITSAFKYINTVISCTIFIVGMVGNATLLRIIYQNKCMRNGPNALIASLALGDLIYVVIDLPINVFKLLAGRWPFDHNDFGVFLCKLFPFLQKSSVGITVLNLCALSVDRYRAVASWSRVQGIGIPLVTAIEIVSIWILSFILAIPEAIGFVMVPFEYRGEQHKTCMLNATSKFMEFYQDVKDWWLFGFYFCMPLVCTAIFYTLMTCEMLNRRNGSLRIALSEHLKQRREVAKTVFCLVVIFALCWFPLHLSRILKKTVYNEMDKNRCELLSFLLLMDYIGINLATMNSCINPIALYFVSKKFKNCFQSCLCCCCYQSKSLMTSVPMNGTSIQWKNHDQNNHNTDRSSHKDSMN
Further: assay procedure not described here.

Histamine H1 receptor, sequence (P35367 whole entry): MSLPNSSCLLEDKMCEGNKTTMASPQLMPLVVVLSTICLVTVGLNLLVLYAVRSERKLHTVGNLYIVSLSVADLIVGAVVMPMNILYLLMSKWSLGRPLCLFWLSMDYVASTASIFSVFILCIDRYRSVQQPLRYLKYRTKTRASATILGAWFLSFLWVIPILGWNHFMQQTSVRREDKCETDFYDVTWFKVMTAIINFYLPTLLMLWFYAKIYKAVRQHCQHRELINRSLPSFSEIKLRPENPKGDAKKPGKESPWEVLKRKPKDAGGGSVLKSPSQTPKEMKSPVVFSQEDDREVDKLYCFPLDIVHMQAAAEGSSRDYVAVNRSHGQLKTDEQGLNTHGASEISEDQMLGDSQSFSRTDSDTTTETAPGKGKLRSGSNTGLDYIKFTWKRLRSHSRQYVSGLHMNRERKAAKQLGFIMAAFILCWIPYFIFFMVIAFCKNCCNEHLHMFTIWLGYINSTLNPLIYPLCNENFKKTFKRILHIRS
Vascular endothelial growth factor receptor 2, sequence (P35968 whole entry): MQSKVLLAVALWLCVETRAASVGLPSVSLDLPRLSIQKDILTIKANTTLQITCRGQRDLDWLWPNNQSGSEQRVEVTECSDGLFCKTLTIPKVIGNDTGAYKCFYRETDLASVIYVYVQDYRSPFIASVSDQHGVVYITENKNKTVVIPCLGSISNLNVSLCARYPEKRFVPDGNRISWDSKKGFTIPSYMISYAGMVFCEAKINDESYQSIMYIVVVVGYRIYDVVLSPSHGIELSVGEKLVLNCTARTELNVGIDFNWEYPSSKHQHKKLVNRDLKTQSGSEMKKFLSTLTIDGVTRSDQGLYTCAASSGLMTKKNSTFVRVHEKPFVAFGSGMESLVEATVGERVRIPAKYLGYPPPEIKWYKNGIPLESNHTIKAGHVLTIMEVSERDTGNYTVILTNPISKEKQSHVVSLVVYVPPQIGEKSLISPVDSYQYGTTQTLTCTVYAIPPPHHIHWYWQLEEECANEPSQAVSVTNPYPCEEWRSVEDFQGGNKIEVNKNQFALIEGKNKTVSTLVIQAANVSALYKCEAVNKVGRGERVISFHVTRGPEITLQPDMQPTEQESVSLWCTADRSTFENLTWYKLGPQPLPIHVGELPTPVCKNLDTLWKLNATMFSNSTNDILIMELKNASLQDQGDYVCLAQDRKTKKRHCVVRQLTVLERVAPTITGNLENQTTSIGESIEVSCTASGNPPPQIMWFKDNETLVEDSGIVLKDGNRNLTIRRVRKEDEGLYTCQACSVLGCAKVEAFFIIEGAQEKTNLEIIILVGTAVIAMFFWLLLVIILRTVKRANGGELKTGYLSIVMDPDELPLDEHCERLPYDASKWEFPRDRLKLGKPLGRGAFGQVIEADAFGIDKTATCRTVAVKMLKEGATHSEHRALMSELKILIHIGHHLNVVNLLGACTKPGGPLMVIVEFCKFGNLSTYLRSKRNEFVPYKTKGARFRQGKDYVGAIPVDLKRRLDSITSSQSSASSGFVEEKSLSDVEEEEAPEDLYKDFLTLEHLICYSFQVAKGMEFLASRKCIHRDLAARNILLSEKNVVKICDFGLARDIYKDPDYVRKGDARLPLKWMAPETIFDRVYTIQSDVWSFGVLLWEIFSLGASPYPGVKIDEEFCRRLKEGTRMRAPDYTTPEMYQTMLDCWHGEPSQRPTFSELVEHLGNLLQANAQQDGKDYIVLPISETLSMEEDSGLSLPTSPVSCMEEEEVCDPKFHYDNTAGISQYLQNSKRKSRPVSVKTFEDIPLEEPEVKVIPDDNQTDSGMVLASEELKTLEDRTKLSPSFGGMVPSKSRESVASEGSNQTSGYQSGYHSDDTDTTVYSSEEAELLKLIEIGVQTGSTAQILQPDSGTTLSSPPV
Prostaglandin G/H synthase 1, sequence (P23219 whole entry): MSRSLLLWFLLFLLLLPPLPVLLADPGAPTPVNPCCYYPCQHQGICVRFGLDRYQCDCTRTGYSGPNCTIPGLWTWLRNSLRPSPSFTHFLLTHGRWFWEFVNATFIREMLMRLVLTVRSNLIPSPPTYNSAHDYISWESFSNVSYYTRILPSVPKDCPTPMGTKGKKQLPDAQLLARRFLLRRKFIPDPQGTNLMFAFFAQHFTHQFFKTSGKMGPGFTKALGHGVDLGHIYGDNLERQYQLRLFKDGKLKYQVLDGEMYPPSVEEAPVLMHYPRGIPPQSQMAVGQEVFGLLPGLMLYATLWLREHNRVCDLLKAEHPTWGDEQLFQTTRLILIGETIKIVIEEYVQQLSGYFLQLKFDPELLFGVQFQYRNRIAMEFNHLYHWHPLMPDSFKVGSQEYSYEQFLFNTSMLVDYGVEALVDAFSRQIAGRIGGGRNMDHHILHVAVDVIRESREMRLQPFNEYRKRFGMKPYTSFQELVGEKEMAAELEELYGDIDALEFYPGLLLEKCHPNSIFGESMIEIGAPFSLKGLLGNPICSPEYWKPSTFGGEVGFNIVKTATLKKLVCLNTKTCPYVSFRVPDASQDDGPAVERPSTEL
Cannabinoid receptor 1, sequence (P21554 whole entry): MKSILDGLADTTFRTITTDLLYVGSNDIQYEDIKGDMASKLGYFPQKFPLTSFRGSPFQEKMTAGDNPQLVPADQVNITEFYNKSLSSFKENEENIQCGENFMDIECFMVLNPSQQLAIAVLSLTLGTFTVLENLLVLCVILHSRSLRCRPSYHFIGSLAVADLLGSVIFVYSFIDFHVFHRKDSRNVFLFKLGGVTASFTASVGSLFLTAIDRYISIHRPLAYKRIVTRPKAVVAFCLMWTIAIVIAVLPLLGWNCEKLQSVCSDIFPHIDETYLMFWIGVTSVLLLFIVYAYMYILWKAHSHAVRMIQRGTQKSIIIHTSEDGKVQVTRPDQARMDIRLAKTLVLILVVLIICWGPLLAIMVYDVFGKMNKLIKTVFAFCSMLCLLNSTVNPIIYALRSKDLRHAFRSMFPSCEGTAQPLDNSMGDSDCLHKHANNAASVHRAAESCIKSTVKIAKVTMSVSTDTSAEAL

| Structure (SMILES) | AC50 (Progesterone receptor) [µM] | AC50 [1] [µM] | AC50 [2] [µM] | AC50 (Histamine H1 receptor) [µM] | AC50 (Cannabinoid receptor 1) [µM] | AC50 [3] [µM] | AC50 (Endothelin-1 receptor) [µM] |
| --- | --- | --- | --- | --- | --- | --- | --- |
| C[N+]1(C)CCC(OC(=O)C(O)(c2ccccc2)C2CCCC2)C1 (stereo not drawn) [GLYCOPYRRONIUM BROMIDE] | > 30 | – | – | – | – | – | – |
| O=C(Cc1ccc(-c2ccccc2)cc1)Nc1ccccn1 [DIFENPIRAMIDE] | > 30 | > 30 | > 30 | > 30 | > 30 | – | – |
| CN1C(C(=O)Nc2ccccn2)=C(O)c2sc(Cl)cc2S1(=O)=O [LORNOXICAM] | – | – | > 10 | > 10 | > 30 | – | – |
| Cc1cccc(Nc2ccccc2C(=O)O)c1C [MEFENAMIC ACID] | > 30 | 0.0343 | > 10 | – | – | > 30 | – |
| CC[N+]1(C)[C@@H]2CC(OC(=O)[C@H](CO)c3ccccc3)C[C@H]1[C@@H]1O[C@@H]12 (stereo partly drawn) [OXITROPIUM] | > 30 | > 30 | – | – | – | > 30 | – |
| CCC1=C(C)CN(C(=O)NCCc2ccc(S(=O)(=O)NC(=O)N[C@H]3CC[C@H](C)CC3)cc2)C1=O [GLIMEPIRIDE] | > 30 | > 30 | – | – | – | > 30 | – |
| O=C(CCNNC(=O)c1ccncc1)NCc1ccccc1 [NIALAMIDE] | > 30 | 1.65 | – | – | – | > 30 | – |
| CCC(=O)NCC[C@@H]1CCc2ccc3c(c21)CCO3 [RAMELTEON] | > 30 | > 30 | – | – | – | – | – |
| OCCN1C[C@H](O)[C@@H](O)[C@H](O)[C@H]1CO [MIGLITOL] | > 30 | > 30 | – | – | – | > 30 | – |
| O=P1(NCCCl)OCCCN1CCCl (stereo not drawn) [IFOSFAMIDE] | – | – | > 30 | – | – | – | – |
| O=C(O[C@H]1C[C@H]2CC[C@@H](C1)[N+]21CCCC1)C(O)(c1ccccc1)c1ccccc1 [TROSPIUM] | – | – | > 30 | 11 | – | – | – |
| C[N+](C)(C)CCO [CHOLINE] | > 30 | > 30 | – | – | – | – | – |
| CNC(=O)c1ccccc1Sc1ccc2c(/C=C/c3ccccn3)n[nH]c2c1 [AXITINIB] | – | – | – | > 30 | > 30 | – | > 30 |
| COc1cc(NC(C)CCCN)c2ncccc2c1 (stereo not drawn) [PRIMAQUINE] | 15.4 | – | – | – | – | > 30 | > 30 |
| CN(C)/N=N/c1[nH]cnc1C(N)=O [DACARBAZINE] | – | – | > 10 | – | – | – | – |
| CCc1oc2ccccc2c1C(=O)c1cc(I)c(O)c(I)c1 [BENZIODARONE] | 4.27 | 29.8 | – | – | – | – | – |
| Oc1c(Cl)cc(Cl)c2cccnc12 [CHLOROXINE] | > 30 | > 30 | – | – | – | > 30 | – |
| CN(C)[C@@H](c1cccc(O)c1)[C@H]1CCCC[C@H]1O [CIRAMADOL] | > 30 | > 10 | – | – | – | 9.31 | – |
| CCCCN1C[C@H](O)[C@@H](O)[C@H](O)[C@H]1CO | – | – | > 30 | > 30 | – | – | > 30 |
| CC(=O)N[C@@H]1[C@@H](O)[C@H](O)[C@@H](CO)O[C@H]1O [N-ACETYLGLUCOSAMINE] | > 30 | > 30 | – | – | – | > 30 | – |
| Clc1ccc(C(c2ccccc2Cl)C(Cl)Cl)cc1 (stereo not drawn) [MITOTANE] | – | – | > 10 | – | – | – | – |
| CN(C)S(=O)(=O)c1ccc2c(c1)N(CCCN1CCC(CCO)CC1)c1ccccc1S2 [PIPOTIAZINE] | > 30 | > 30 | – | – | – | > 30 | – |
| CC1(C)NC(=O)N(c2ccc([N+](=O)[O-])c(C(F)(F)F)c2)C1=O [NILUTAMIDE] | 12.7 | > 30 | > 30 | > 30 | – | – | – |
| Cc1nc([N+](=O)[O-])cn1-c1ccc([N+](=O)[O-])cc1 [NITREFAZOLE] | – | – | > 30 | > 30 | > 30 | – | > 30 |
| N[C@H](C(=O)O)[C@H](O)c1ccc(O)c(O)c1 [DROXIDOPA] | > 30 | 17.8 | – | – | – | > 30 | – |
| CCCCCCOc1nsnc1C1=CCCN(C)C1 [XANOMELINE] | > 30 | > 30 | – | – | – | > 30 | – |

| Structure (SMILES) | AC50 (Progesterone receptor) [µM] | AC50 [1] [µM] | AC50 [2] [µM] | AC50 (Histamine H1 receptor) [µM] | AC50 (Cannabinoid receptor 1) [µM] | AC50 [3] [µM] | AC50 (Endothelin-1 receptor) [µM] |
| --- | --- | --- | --- | --- | --- | --- | --- |
| O=C(O)c1cc(O)ccc1O [GENTISIC ACID] | > 30 | > 30 | – | – | – | > 30 | – |
| CC(C)Nc1ncccn1 [ISAXONINE] | > 30 | > 30 | – | – | – | > 30 | – |
| CC(C)(S)[C@@H](N)C(=O)O [PENICILLAMINE] | > 30 | – | – | – | – | > 30 | – |
| CC(=O)Nc1ccc(O)cc1 [ACETAMINOPHEN] | > 30 | – | – | – | > 30 | > 30 | > 30 |
| COCCCN1CCC(NC(=O)c2cc(Cl)c(N)c3c2OCC3)CC1 [PRUCALOPRIDE] | > 30 | > 30 | – | > 30 | > 30 | – | > 30 |
| COc1cc2nc(N(C)CCCNC(=O)C3CCCO3)nc(N)c2cc1OC (stereo not drawn) [ALFUZOSIN] | – | – | > 30 | > 30 | > 30 | – | > 30 |
| C[C@@H](O)[C@H]1C(=O)N2C(C(=O)O)=C(S[C@@H]3CN[C@H](C(=O)N(C)C)C3)[C@H](C)[C@H]12 [MEROPENEM] | – | – | > 10 | – | > 300 | – | > 300 |
| CN(C)CCN1C(=O)c2ccccc2N(C)c2ccccc21 [DIBENZEPIN] | > 30 | > 30 | – | – | – | > 30 | – |
| CCOC(=O)[C@H](CCc1ccccc1)N[C@@H](C)C(=O)N1[C@H](C(=O)O)C[C@H]2CCCC[C@@H]21 [TRANDOLAPRIL] | > 30 | > 30 | – | – | – | > 30 | – |
| Nc1nc(NC2CC2)c2ncn([C@H]3C=C[C@@H](CO)C3)c2n1 [ABACAVIR] | – | – | > 30 | > 30 | > 30 | – | > 30 |
| C=C[C@H]1C[N@@]2CC[C@H]1C[C@H]2[C@H](O)c1ccnc2ccc(OC)cc12 [QUININE] | > 30 | > 30 | – | – | – | > 30 | – |
| CN1C(=O)CCS(=O)(=O)C1c1ccc(Cl)cc1 (stereo not drawn) [CHLORMEZANONE] | – | – | > 10 | > 30 | – | – | – |
| CCCSc1ccc2nc(NC(=O)OC)[nH]c2c1 [ALBENDAZOLE] | – | – | > 10 | – | – | – | – |
| N[C@@H](C(=O)N[C@@H]1C(=O)N2C(C(=O)O)=C(Cl)CC[C@H]12)c1ccccc1 [LORACARBEF ANHYDROUS] | > 30 | > 30 | – | – | – | – | – |
| Cc1cc(C#N)cc(C)c1Oc1nc(Nc2ccc(C#N)cc2)nc(N)c1Br [ETRAVIRINE] | 0.08 | 14.4 | – | – | – | – | – |
| C[C@]12CC[C@@H]3c4ccc(O)cc4CC[C@H]3[C@@H]1C[C@@H](O)[C@@H]2O [ESTRIOL] | 3.3 | > 30 | – | – | – | > 30 | – |
| CC(=O)NCCCS(=O)(=O)O [ACAMPROSATE] | – | – | – | > 30 | > 30 | – | > 30 |
| COCc1c(C(C)C)nc(C(C)C)c(/C=C/[C@@H](O)C[C@@H](O)CC(=O)O)c1-c1ccc(F)cc1 [CERIVASTATIN] | > 30 | > 30 | – | – | – | > 30 | – |
| NS(=O)(=O)Cc1noc2ccccc12 [ZONISAMIDE] | – | – | > 10 | > 10 | – | – | – |
| COC(c1ccccc1)(c1ccccc1)[C@H](Oc1nc(C)cc(C)n1)C(=O)O [AMBRISENTAN] | > 30 | > 30 | – | – | – | > 30 | – |
| COc1ccccc1OCC(O)CN1CCN(CC(=O)Nc2c(C)cccc2C)CC1 (stereo not drawn) [RANOLAZINE] | – | – | > 30 | > 30 | – | – | > 30 |
| CN(C)CC(c1ccc(O)cc1)C1(O)CCCCC1 (stereo not drawn) [DESVENLAFAXINE] | > 30 | > 30 | – | – | – | > 30 | – |
| CN(C)CCn1nnnc1SCC1=C(C(=O)O)N2C(=O)[C@@H](NC(=O)Cc3csc(N)n3)[C@H]2SC1 [CEFOTIAM] | > 30 | > 30 | – | – | – | – | – |
| Nc1ccn([C@H]2CC[C@@H](CO)O2)c(=O)n1 [ZALCITABINE] | – | – | > 10 | > 10 | > 30 | – | – |
| CC(C)(C)NC[C@H](O)COc1ccccc1C1CCCC1 [PENBUTOLOL] | > 30 | 26.4 | – | – | – | > 30 | – |
